Experimental data: PubChem BioAssay (NCI)
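The concentration for 50% growth inhibition is given as GI50. Definition used: TGI = concentration required for complete inhibition of growth.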

Tests used:
Test in all cases: DTP human tumour cell line panel, 384-well format
786-0 renal = system: 786-0 renal
A498 renal = system: A498 renal
A549 NSCLC = system: A549 NSCLC
ACHN renal = system: ACHN renal
BT-549 breast = system: BT-549 breast
CAKI-1 renal = system: CAKI-1 renal
CCRF-CEM leukemia = system: CCRF-CEM leukemia
COLO 205 colon = system: COLO 205 colon
DU-145 prostate = system: DU-145 prostate
EKVX NSCLC = system: EKVX NSCLC
HCC-2998 colon = system: HCC-2998 colon
HCT-15 colon = system: HCT-15 colon
HL-60(TB) leukemia = system: HL-60(TB) leukemia
HOP-62 NSCLC = system: HOP-62 NSCLC
HOP-92 NSCLC = system: HOP-92 NSCLC
HS 578T breast = system: HS 578T breast
HT29 colon = system: HT29 colon
KM12 colon = system: KM12 colon
LOX IMVI melanoma = system: LOX IMVI melanoma
M14 melanoma = system: M14 melanoma
MALME-3M melanoma = system: MALME-3M melanoma
MCF7 breast = system: MCF7 breast
MDA-MB-231 breast = system: MDA-MB-231 breast
MDA-MB-435 melanoma = system: MDA-MB-435 melanoma
MDA-MB-468 breast = system: MDA-MB-468 breast
MOLT-4 leukemia = system: MOLT-4 leukemia
NCI-H23 lung = system: NCI-H23 lung
NCI-H322M lung = system: NCI-H322M lung
NCI-H460 NSCLC = system: NCI-H460 NSCLC
NCI-H522 lung = system: NCI-H522 lung
NCI/ADR-RES ovarian = system: NCI/ADR-RES ovarian
OVCAR-3 ovarian = system: OVCAR-3 ovarian
OVCAR-4 ovarian = system: OVCAR-4 ovarian
OVCAR-8 ovarian = system: OVCAR-8 ovarian
PC-3 prostate = system: PC-3 prostate
RPMI-8226 leukemia = system: RPMI-8226 leukemia
RXF 393 renal = system: RXF 393 renal
SF-268 CNS = system: SF-268 CNS
SF-539 CNS = system: SF-539 CNS
SK-MEL-2 melanoma = system: SK-MEL-2 melanoma
SK-MEL-28 melanoma = system: SK-MEL-28 melanoma
SK-MEL-5 melanoma = system: SK-MEL-5 melanoma
SK-OV-3 ovarian = system: SK-OV-3 ovarian
SN12C renal = system: SN12C renal
SNB-19 CNS = system: SNB-19 CNS
SNB-75 CNS = system: SNB-75 CNS
SR leukemia = system: SR leukemia
T-47D breast = system: T-47D breast
TK-10 renal = system: TK-10 renal
U251 glioblastoma = system: U251 glioblastoma
UACC-257 melanoma = system: UACC-257 melanoma
UACC-62 melanoma = system: UACC-62 melanoma

CCOC(=O)c1c(NN2CCN(CC(F)(F)F)CC2)oc(/C=C2\C=Nc3ncccc32)c1O
GI50 (786-0 renal): 3.39 µM
TGI (786-0 renal): 8.44 µM
GI50 (A498 renal): 2.75 µM
TGI (A498 renal): > 100 µM
GI50 (A549 NSCLC): 5.31 µM
TGI (A549 NSCLC): > 100 µM
GI50 (ACHN renal): 5.86 µM
TGI (ACHN renal): > 100 µM
GI50 (BT-549 breast): 2.44 µM
TGI (BT-549 breast): 5.08 µM
GI50 (CAKI-1 renal): 3.83 µM
TGI (CAKI-1 renal): > 100 µM
GI50 (CCRF-CEM leukemia): 0.911 µM
TGI (CCRF-CEM leukemia): 2.31 µM
GI50 (COLO 205 colon): 0.373 µM
TGI (COLO 205 colon): 3.37 µM
GI50 (DU-145 prostate): 3.08 µM
TGI (DU-145 prostate): > 100 µM
GI50 (EKVX NSCLC): 7.51 µM
TGI (EKVX NSCLC): > 100 µM
GI50 (HCC-2998 colon): 1.61 µM
TGI (HCC-2998 colon): 6.01 µM
GI50 (HCT-15 colon): 5.2 µM
TGI (HCT-15 colon): > 100 µM
GI50 (HL-60(TB) leukemia): 1.18 µM
TGI (HL-60(TB) leukemia): 2.41 µM
GI50 (HOP-62 NSCLC): 2.86 µM
TGI (HOP-62 NSCLC): 9.4 µM
GI50 (HOP-92 NSCLC): > 100 µM
TGI (HOP-92 NSCLC): > 100 µM
GI50 (HS 578T breast): 1.55 µM
TGI (HS 578T breast): 3.21 µM
GI50 (HT29 colon): 2.5 µM
TGI (HT29 colon): > 100 µM
GI50 (KM12 colon): 3.28 µM
TGI (KM12 colon): 8.02 µM
GI50 (LOX IMVI melanoma): 3.14 µM
TGI (LOX IMVI melanoma): 9.61 µM
GI50 (M14 melanoma): 3.36 µM
TGI (M14 melanoma): 10.5 µM
GI50 (MALME-3M melanoma): 3.05 µM
TGI (MALME-3M melanoma): 9.54 µM
GI50 (MCF7 breast): 3.69 µM
TGI (MCF7 breast): 10.2 µM
GI50 (MDA-MB-231 breast): 5.8 µM
TGI (MDA-MB-231 breast): > 100 µM
GI50 (MDA-MB-435 melanoma): 10.8 µM
TGI (MDA-MB-435 melanoma): 29.4 µM
GI50 (MDA-MB-468 breast): 3.2 µM
TGI (MDA-MB-468 breast): 9.71 µM
GI50 (MOLT-4 leukemia): 1.88 µM
TGI (MOLT-4 leukemia): 3.37 µM
GI50 (NCI-H23 lung): 4.83 µM
TGI (NCI-H23 lung): 18.5 µM
GI50 (NCI-H322M lung): 4.05 µM
TGI (NCI-H322M lung): > 100 µM
GI50 (NCI-H460 NSCLC): 2.23 µM
TGI (NCI-H460 NSCLC): 4.4 µM
GI50 (NCI-H522 lung): 1.14 µM
TGI (NCI-H522 lung): > 100 µM
GI50 (NCI/ADR-RES ovarian): > 100 µM
TGI (NCI/ADR-RES ovarian): > 100 µM
GI50 (OVCAR-3 ovarian): 2.82 µM
TGI (OVCAR-3 ovarian): > 100 µM
GI50 (OVCAR-4 ovarian): 96.1 µM
TGI (OVCAR-4 ovarian): > 100 µM
GI50 (OVCAR-8 ovarian): 5.48 µM
TGI (OVCAR-8 ovarian): > 100 µM
GI50 (PC-3 prostate): 3.64 µM
TGI (PC-3 prostate): > 100 µM
GI50 (RPMI-8226 leukemia): 1.96 µM
TGI (RPMI-8226 leukemia): 4.22 µM
GI50 (RXF 393 renal): 1.94 µM
TGI (RXF 393 renal): 3.91 µM
GI50 (SF-268 CNS): 4.06 µM
TGI (SF-268 CNS): 11.6 µM
GI50 (SF-539 CNS): 2.84 µM
TGI (SF-539 CNS): 9.8 µM
GI50 (SK-MEL-2 melanoma): 2.62 µM
TGI (SK-MEL-2 melanoma): 4.86 µM
GI50 (SK-MEL-28 melanoma): 5.23 µM
TGI (SK-MEL-28 melanoma): 16.7 µM
GI50 (SK-MEL-5 melanoma): 2.67 µM
TGI (SK-MEL-5 melanoma): 14.9 µM
GI50 (SK-OV-3 ovarian): 2.72 µM
TGI (SK-OV-3 ovarian): > 100 µM
GI50 (SN12C renal): 5.42 µM
TGI (SN12C renal): > 100 µM
GI50 (SNB-19 CNS): 8.03 µM
TGI (SNB-19 CNS): > 100 µM
GI50 (SNB-75 CNS): 6.66 µM
TGI (SNB-75 CNS): 18.9 µM
GI50 (SR leukemia): 0.222 µM
TGI (SR leukemia): 0.488 µM
GI50 (T-47D breast): > 100 µM
TGI (T-47D breast): > 100 µM
GI50 (TK-10 renal): > 100 µM
TGI (TK-10 renal): > 100 µM
GI50 (U251 glioblastoma): 2.76 µM
TGI (U251 glioblastoma): > 100 µM
GI50 (UACC-257 melanoma): 17.4 µM
TGI (UACC-257 melanoma): 36.2 µM
GI50 (UACC-62 melanoma): 2.12 µM
TGI (UACC-62 melanoma): 3.96 µM
